For series [1], the system named is polyclonal antibodies to vincristine, bleed G2M5. The series is described as follows: Indirect competitive microtiter plate immunoassay (ELISA), polyclonal antiserum bleed G2M5. The settings on record: relative to vincristine, vincristine [5]-BSA coated plates. The series is classed as binding, mouse. Here is the method:
(§1) The ELISA method for measuring vincristine concentrations was performed in polystyrene microtiter plates (Nunc MaxiSorp F8 Immunomodules) optimized for protein binding and containing 96 wells per plate. Each well was coated with vincristine [5]-BSA conjugate (prepared as in Example 5) by adding 300 μl, of vincristine [5]-BSA conjugate at 10 μg/mL in 0.05M sodium carbonate, pH 9.6, and incubating for three hours at room temperature. The wells were washed with 0.05M sodium carbonate, pH 9.6 and then were blocked with 375 μL of 5% sucrose, 0.2% sodium caseinate solution for 30 minutes at room temperature. After removal of the blocking solution the plates were dried at 37° C. overnight.
(§2) This procedure is to find the dilution of antibody or anti-serum to be tested for displacement as in Example 9. […] Following the incubation for color development, 50 μL of stop solution (1.5% sodium fluoride in diH2O) was added to each well to stop the color development and after 10 seconds of shaking the absorbance was determined at 650 nm (Molecular Devices Plate Reader). The amount of antibody in a well was proportional to the absorbance measured and was expressed as the dilution (titer) resulting in an absorbance of 1.5. Titers were determined by graphing antibody dilution of the antibody measured (x-axis) vs. absorbance 650 nm (y-axis) and interpolating the titer at an absorbance of 1.5. […]
On the technique in general: ELISA stands for enzyme-linked immunosorbent assay.

For series [2], the system named is polyclonal antibodies to vincristine, bleed G1M4. Nature of the series: Indirect competitive microtiter plate immunoassay (ELISA), polyclonal antiserum bleed G1M4. Format: binding, mouse. The settings on record: relative to vincristine, vincristine [5]-BSA coated plates. Here is the method: as §1, §2
Series [3] concerns polyclonal antibodies to vincristine, bleed G2M1. Nature of the series: Indirect competitive microtiter plate immunoassay (ELISA), polyclonal antiserum bleed G2M1. The series is classed as binding, mouse. The settings on record: relative to vincristine, vincristine [5]-BSA coated plates. Here is the method: as §1, §2
For series [4], the system named is monoclonal antibody to vincristine 8B6.23.23. The series is described as follows: Indirect competitive microtiter plate immunoassay (ELISA), monoclonal antibody 8B6.23.23. The series is classed as binding, mouse. The settings on record: relative to vincristine, vincristine [5]-BSA coated plates. Here is the method: as §1
(§3) This procedure is to find the dilution of antibody or anti-serum to be tested for displacement as in Example 9. The ELISA method for screening vincristine antibodies (produced in Example 6) was performed with the microtiter plates that were sensitized with vincristine-BSA conjugate prepared in Example 7. The antibody screening assay was performed by diluting the murine serum from test bleeds (as in Example 6a) containing polyclonal vincristine antibodies to 1:2,000, 1:6,000, 1:18,000 and 1:54,000 (volume/volume) in phosphate buffered saline containing 0.1% BSA and 0.01% thimerosal. […] (volume/volume) in phosphate buffered saline containing 0.1% BSA and 0.01% thimerosal. To each well of vincristine-BSA sensitized wells (prepared in Example 7)50 μL phosphate buffered saline containing 0.1% BSA and 0.01% thimerosal and 50 μL of diluted antibody were added and incubated for 10 minutes at room temperature with shaking. During this incubation antibody binds to the vincristine-BSA conjugate passively absorbed in the wells (Example 7). The wells of the plates were washed three times with 0.02 M TRIS, 0.9% NaCl, 0.5% Tween-80 and 0.001% thimerosal, pH 7.8 to remove any unbound antibody. […] Following the incubation for color development, 50 μL of stop solution (1.5% sodium fluoride in diH2O) was added to each well to stop the color development and after 10 seconds of shaking the absorbance was determined at 650 nm (Molecular Devices Plate Reader). The amount of antibody in a well was proportional to the absorbance measured and was expressed as the dilution (titer) resulting in an absorbance of 1.5. Titers were determined by graphing antibody dilution of the antibody measured (x-axis) vs. absorbance 650 nm (y-axis) and interpolating the titer at an absorbance of 1.5. The titer which produced absorbance of 1.5 determined the concentration (dilution) of antibody used in the indirect competitive microtiter plate assay described in Example 9. […]

Series [5] concerns antibodies to vincristine. Nature of the series: Indirect competitive microtiter plate immunoassay (ELISA), pool of antibodies to vincristine. Format: binding, mouse. The settings on record: for reactivity of the antibodies of this invention (in words): summary of Tables I and II. Here is the method: as §1
This procedure is to find the dilution of antibody or anti-serum to be tested for displacement as in Example 9. The ELISA method for screening vincristine antibodies (produced in Example 6) was performed with the microtiter plates that were sensitized with vincristine-BSA conjugate prepared in Example 7. The antibody screening assay was performed by diluting the murine serum from test bleeds (as in Example 6a) containing polyclonal vincristine antibodies to 1:2,000, 1:6,000, 1:18,000 and 1:54,000 (volume/volume) in phosphate buffered saline containing 0.1% BSA and 0.01% thimerosal. […] (volume/volume) in phosphate buffered saline containing 0.1% BSA and 0.01% thimerosal. To each well of vincristine-BSA sensitized wells (prepared in Example 7)50 μL phosphate buffered saline containing 0.1% BSA and 0.01% thimerosal and 50 μL of diluted antibody were added and incubated for 10 minutes at room temperature with shaking. During this incubation antibody binds to the vincristine-BSA conjugate passively absorbed in the wells (Example 7). The wells of the plates were washed three times with 0.02 M TRIS, 0.9% NaCl, 0.5% Tween-80 and 0.001% thimerosal, pH 7.8 to remove any unbound antibody. […] After an incubation of 10 minutes at room temperature with shaking, during which the goat anti-mouse antibody-HRP enzyme conjugate binds to vincristine antibodies in the wells, the plates were again washed three times to remove unbound goat anti-mouse antibody-HRP enzyme conjugate. To develop a measurable color in the wells washing was followed by the addition of 100 μL of TMB (TMB Substrate, BioFx), the substrate for HRP, to develop color during a 10 minute incubation with shaking at room temperature. Following the incubation for color development, 50 μL of stop solution (1.5% sodium fluoride in diH2O) was added to each well to stop the color development and after 10 seconds of shaking the absorbance was determined at 650 nm (Molecular Devices Plate Reader). The amount of antibody in a well was proportional to the absorbance measured and was expressed as the dilution (titer) resulting in an absorbance of 1.5. Titers were determined by graphing antibody dilution of the antibody measured (x-axis) vs. absorbance 650 nm (y-axis) and interpolating the titer at an absorbance of 1.5. The titer which produced absorbance of 1.5 determined the concentration (dilution) of antibody used in the indirect competitive microtiter plate assay described in Example 9.
Indirect Competitive Microtiter Plate Immunoassay Procedure Determining IC50 and Cross-Reactivity for Antibodies to Vincristine
The ELISA method for determining IC50 values and cross-reactivity was performed with the microtiter plates that were sensitized with vincristine [5]-BSA conjugates as described in Example 7. […]

For series [6], the system named is polyclonal antibodies to vincristine, bleed G1M3. Nature of the series: Indirect competitive microtiter plate immunoassay (ELISA), polyclonal antiserum bleed G1M3. Format: binding, mouse. The settings on record: relative to vincristine, vincristine [5]-BSA coated plates. Here is the method:
as §1, §2

Series [7] relates to monoclonal antibody to vincristine 1D12.10. The series is described as follows: Indirect competitive microtiter plate immunoassay (ELISA), monoclonal antibody 1D12.10. Format: binding, mouse. The settings on record: relative to vincristine, vincristine [5]-BSA coated plates. Here is the method: as §1, §3
Series [8] relates to polyclonal antibodies to vincristine, bleed G1M1. The series is described as follows: Indirect competitive microtiter plate immunoassay (ELISA), polyclonal antiserum bleed G1M1. The series is classed as binding, mouse. The settings on record: relative to vincristine, vincristine [5]-BSA coated plates. Here is the method:
as §1, §2

The conditions of series [9]: cited from earlier work.
Where [10] appears, read: single one minute intravenous injection of 1-2 mg per m^2 body surface area.

Counter-ions that a name gives are not always drawn.

For `CC[C@]1(O)C[C@@H]2CN(CCc3c([nH]c4ccccc34)[C@@](C(=O)OC)(c3cc4c(cc3OC)N(C)[C@H]3[C@@](O)(C(=O)OC)[C@H](OC(C)=O)[C@]5(CC)C=CCN6CC[C@]43[C@@H]65)C2)C1` [Vinblastine, vinblastine], the “Cross-reactivity of competitive immunoassay” value (“Cross-reactivity” below) was <2% in series [1]; <4.1% in series [2]; <3.4% in series [3]; 0.3% in series [4]; <3.9% in series [6]; <0.1% in series [7]. Further, the “Cross-reactivity” value in [8] is listed as <0.9%. Besides, in series [5] (measured with this pool of antibodies), the “percent cross-reactivities relative to vincristine” value was “less than 5%”. Moreover, in series [5], the “reactivity of the antibodies of this invention (in words)” value (from here on “reactivity … (in words)”) is recorded as “substantially non-cross-reactive”.

Take `CC[C@]1(O)C[C@H]2CN(CCc3c([nH]c4ccccc34)[C@@](C(=O)OC)(c3cc4c(cc3OC)N(C=O)[C@H]3[C@@](O)(C(=O)OC)[C@H](OC(C)=O)[C@]5(CC)C=CCN6CC[C@]43[C@@H]65)C2)C1` [Vincristine sulfate]: in series [9] (setting [10]), the elimination half-life was 19 to 155 h and the “time to distribution into tissue” value is ≤ 10 min.

Take `[H][C@@]12C[N@@](CCc3c([nH]c4ccccc34)[C@@](C(=O)OC)(c3cc4c(cc3OC)N(C=O)[C@]3([H])[C@]45CC[N@@]4CC=C[C@@](CC)([C@@H](OC(C)=O)[C@]3(O)C(=O)OC)[C@]45[H])C1)C[C@](O)(CC)C2` [Vincristine, vincristine]: the “Cross-reactivity” value in [1], in [2], in series [3], in [4], in [6] and in series [7] was 100% in each case. Moreover, the “Cross-reactivity” value in [8] is on record as 100%. The “reactivity … (in words)” value in series [5] is “substantially selectively reactive”. Moreover, in series [9] (Crom et al., 1994), the “difference in total dose exposure (inter-/intra-patient variability)” value is listed as “up to 40 fold”. Besides, the “interpatient variability in clearance” value in series [9] (Gidding et al., 1999, Groninger et al., 2002) was “up to 25 fold”.

Turning to `CCC1=C[C@@H]2CN(C1)Cc1c([nH]c3ccccc13)[C@@](C(=O)OC)(c1cc3c(cc1OC)N(C)[C@H]1[C@@](O)(C(=O)OC)[C@H](OC(C)=O)[C@]4(CC)C=CCN5CC[C@]31[C@@H]54)C2` [Vinorelbine, vinorelbine], the “Cross-reactivity” value in series [4] was 0.7%; in series [7], <0.1%. Moreover, the “reactivity … (in words)” value in series [5] was “substantially non-cross-reactive”.

On to vindesine, for which the “Cross-reactivity” value in [4] and in series [7] was <0.1% in each case. For the same compound, in series [5], the “reactivity … (in words)” value is “substantially non-cross-reactive”.

Source of the values: patent publication US20120302740A1, “VINCRISTINE IMMUNOASSAY” (SALADAX BIOMEDICAL INC., priority 2010, published 2012).
